Measured values from patent US20200338045A1, “ISOINDOLINE COMPOSITIONS AND METHODS FOR TREATING NEURODEGENERATIVE DISEASE” (priority 2017, published 2020).
“Also recorded” adds a separate entry of the source.

Columns and labels:
[1] = tested on: neurogranin, Aβ, tau, NFL in CSF; assay: CSF Alzheimer's disease biomarkers by ELISA (COG0102); assay type: in vivo, human; conditions: for neurogranin reduced: 28 days
Procedure: This trial (ClinicalTrials.gov NCT02907567) was a randomized, double-blind, placebo-controlled clinical trial in mild to moderate Alzheimer's patients (MMSE 18-26) (See FIG. 1 for clinical trial design). The trial was conducted at six sites in Australia. Patients were randomized into placebo (n=5) or CT1812-treated groups: 90 mg (n=4), 280 mg (n=5) or 560 mg (n=5) and treated once daily for 28 days. Clinical chemistry was done at Sydpath (Sydney, AU). Pharmacokinetics were done at CPR Pharma Services (Adelaide, AU). Cerebrospinal fluid samples were taken at screening and day 21-28 of treatment and aliquoted. Plasma samples were taken at screening or Day 1 (one sample) and day 14-28, then spun down to separate plasma and aliquoted. One set of CSF samples was analyzed for Alzheimer's disease biomarkers; protein measurements (Aβ42, A1340, total tau, tau phosphorylated at threonine 181 (phosphorylated tau), NFL and neurogranin) were performed using commercially available ELISA assays from Fujirebio according to the manufacturer's instructions (INNOTEST β-AMYLOID(1-42), INNOTEST β-AMYLOID(1-40), INNOTEST hTau Ag, INNOTEST PHOSPHO-TAU(181P), Uman Diagnostics NFL assay). Neurogranin was measured with a sandwich ELISA method using antibodies Ng2 and Ng22 developed at the University of Gotteborg (Kvartsberg et al. 2015). Identical aliquots of CSF, and plasma were analyzed for protein expression changes via LC/MSMS at Caprion (see below).

[2] = tested on: aged transgenic mouse models of AD; assay: Aged transgenic mouse models of AD (cognition, synapses, CSF proteins); assay type: in vivo

## CC(C)(C)Oc1cc(CCC(C)(C)N2Cc3ccc(S(C)(=O)=O)cc3C2)ccc1O [CT1812]
[1]; 90 mg dose group
  neurogranin reduced: 33%
[1]; ELISA, direction of change
  Neurogranin, With CT1812: reduced and decreased and ↓*
[1]; before and after treatment
  Aβ, tau and NFL biomarker levels: remain unchanged
[1]; pooled CT1812-treated group
  neurogranin reduced: 17.6%
[2]; aged transgenic mouse models of AD
  cognitive performance / memory: restoring normal cognitive performance; also recorded: restores cognitive function; also recorded: restores memory to normal
[2]; chronic treatment of aged transgenic mice, efficacious doses, LC/MSMS
  inflammatory protein expression in CSF: significantly reduces
